This is an account of results in patent US20190022039A1, “COMPOUND HAVING ENHANCING ACTIVITY FOR GLUCAGON-LIKE PEPTIDE-1 RECEPTOR ACTIONS” (AJINOMOTO CO., INC., priority 2016, published 2019).

This experiment deals with T1, human GLP-1R (Homo sapiens, UniProt P43220).
T1 construct: expressed in transfected cells; host or cells: PEAK RAPID-derived Gα15-trans48 LD stably expressing cells (PRG48), transiently transfected with Lipofectamine 2000
Description: GLP-1 receptor in vitro calcium assay (intracellular free calcium concentration change induced via GLP-1 receptor). As to conditions: for EC50: PRG48 cells transfected with human GLP-1R, compound added with 250 pM GLP-1, Ca2+ response ΔF/F, read-out: Ca EC50 value; for GLP-1 receptor action enhancing activity (vs BETP): intensity compared to BETP, activity of BETP as 1. It is filed as cell-based. Here is the method:
The supernatant was removed by centrifugation (1,200 rpm, 3 min), and the cells were suspended at 4×10^6 cells/mL in 5% FBS DMEM/Ham's F-12. 1.0 mL thereof was seeded in a 15 cm dish and cultured (37° C., 5% CO2) overnight. The next day, the medium of the cultured PRG48 cells was replaced with 5% FBS DMEM/Ham's F-12 medium (30 mL), human GLP-1R gene mixture solution (GLP-1R/pc.DNA3.1(+) 60 μg) prepared using 6.0 mL of Opti-MEM (invitrogen) and 120 μL of Lipofectamin 2000 (invitrogen) was slowly added to the cells, and cultured (37° C., 5% CO2) for 6 hr to introduce the gene. […] The cells were counted, suspended at 0.5×10^6 cells/mL in 5% FBS DMEM/Ham's F-12 medium, and seeded in each well of D-Lysine coat 96 well plate (BD Bioscience) at 7.0×10^4 cells. After static adhesion at room temperature for 1 hr, the cells were cultured overnight (37° C., 5% CO2). The medium in the Cultured 96 well was entirely discarded, 150 μL of intracellular calcium measurement staining solution Calcium assay kit Express (Molecular Device) diluted 80-fold with Assay buffer (20 mM HEPES, 146 mM NaCl, 1 mM MgSO4, 1.39 mM glucose, 1 mM CaCl2, 2.5 mM Probenecid, 0.05% Casein Enzymatic Hydrolysate) was added, and the mixture was stood at 37° C. for 30 min, and then at room temperature for 45 min to perform staining. After staining, 250 pM GLP-1 and the compound were added and Ca^2+ response was observed by using FDSSμCELL (Hamamatsu Photonics K.K.). Each evaluation compound was dissolved in DMSO, further diluted with Assay buffer and used.
For evaluation, the fluorescence values (Ex480:Em540) before and after addition were measured, and changes in the intracellular free calcium concentration produced via GLP-1R receptor by the addition were quantitatively examined. For the measurement and analysis of the fluorescence values, a soft (FDSS7000EX) attached to the FDSSμCELL was used, and ΔF/F value ((maximum fluorescence value after stimulation−minimum fluorescence value after stimulation)/fluorescence value before stimulation) was calculated. Using the obtained ΔF/F values, EC50 value was calculated by Prism5.

T1 sequence (P43220 24-463): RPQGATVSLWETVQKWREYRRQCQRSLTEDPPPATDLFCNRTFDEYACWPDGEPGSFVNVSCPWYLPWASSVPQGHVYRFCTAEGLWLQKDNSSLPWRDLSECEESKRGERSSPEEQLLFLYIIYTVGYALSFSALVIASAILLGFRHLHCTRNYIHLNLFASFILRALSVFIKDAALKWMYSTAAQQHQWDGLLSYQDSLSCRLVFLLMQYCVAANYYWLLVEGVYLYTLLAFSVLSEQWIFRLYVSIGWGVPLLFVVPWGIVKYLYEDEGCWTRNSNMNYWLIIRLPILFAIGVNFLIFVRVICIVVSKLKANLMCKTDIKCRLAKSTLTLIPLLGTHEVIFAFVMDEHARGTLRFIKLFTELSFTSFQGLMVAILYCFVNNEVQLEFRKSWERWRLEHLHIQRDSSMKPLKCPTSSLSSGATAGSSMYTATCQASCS

As a reminder, the EC50 is the concentration giving half of the maximal effect. Consider `CCCCC(CC)CNC(=O)[C@@H](CC(C)C)NC(=O)Nc1ccc(NS(=O)(=O)c2ccc(C)cc2)cc1` (some centres unmarked) [Compound 37], for which the concentration giving a half-maximal response (EC50) is 0.18 µM and the “GLP-1 receptor action enhancing activity (vs BETP)” value was determined as 140.
In the case of `CCCCCC(C)NC(=O)[C@@H](Cc1ccccc1)NC(=O)Nc1ccc(NS(=O)(=O)c2ccc(C)cc2)cc1` (some centres unmarked) [Compound 54], the half-maximal effective concentration (EC50) is 0.18 µM and the “GLP-1 receptor action enhancing activity (vs BETP)” value stood at 137.
The matching figures for `CCCOc1ccc(-c2noc([C@H](CC3CCCCC3)NC(=O)Nc3ccc(NS(=O)(=O)c4ccc(C(C)(C)C)cc4)cc3)n2)cc1` [Compound 83]: 0.0043 µM and 5794.
The matching figures for `Cc1ccc(S(=O)(=O)Nc2ccc(NC(=O)N[C@H](Cc3ccccc3)C(=O)NC3CCCCCC3)cc2)cc1` [Compound 23]: 0.37 µM and 68.
In the case of `CCCCCCNC(=O)[C@@H](Cc1c[nH]c2ccccc12)NC(=O)Nc1cccc(NS(=O)(=O)c2ccc(C(C)(C)C)cc2)c1` [Compound 95], the EC50 turned out to be 0.25 µM and the “GLP-1 receptor action enhancing activity (vs BETP)” value came out at 101.
The matching figures for `CC(C)(C)OC(=O)[C@H](Cc1ccccc1)NC(=O)Nc1ccc(NS(=O)(=O)c2ccc(C(F)(F)F)cc2)cc1` [Compound 81]: 1 µM and 24.
The matching figures for `CC(C)CCCC(C)NC(=O)[C@@H](CC1CCCCC1)NC(=O)Nc1cccc(NS(=O)(=O)c2ccc(C(C)(C)C)cc2)c1` (some centres unmarked) [Compound 92]: 0.024 µM and 1028.
With `Cc1ccc(S(=O)(=O)Nc2ccc(NC(=O)N[C@H](Cc3ccc(Cl)cc3)C(=O)NCCC3CCCCC3)cc2)cc1` [Compound 46], the concentration for a half-maximal effect (EC50) was 0.016 µM.
In the case of `CC(C)CCCC(C)NC(=O)[C@H](Cc1ccc(Cl)cc1)NC(=O)Nc1ccc(NS(=O)(=O)c2ccc(C(C)(C)C)cc2)cc1` (some centres unmarked) [Compound 58], the concentration for a half-maximal effect (EC50) was determined as 0.0046 µM.
Regarding `CC(C)(C)OC(=O)[C@H](Cc1ccccc1)NC(=O)Nc1ccc(NS(=O)(=O)Cc2ccccc2)cc1` [Compound 74], the EC50 was 1.9 µM and the “GLP-1 receptor action enhancing activity (vs BETP)” value stood at 14.
As for `CCCCCCNC(=O)[C@@H](Cc1ccccc1)NC(=O)Nc1ccc(NS(=O)(=O)c2ccc(C)cc2)cc1` [Compound 2], the concentration for a half-maximal effect (EC50) was determined as 0.68 µM and the “GLP-1 receptor action enhancing activity (vs BETP)” value is listed as 37.
As for `COc1cc(NC(=O)N[C@H](Cc2ccccc2)C(=O)OC(C)(C)C)ccc1NS(=O)(=O)c1ccc(C)cc1` [Compound 88], the concentration for a half-maximal effect (EC50) was found to be 1.3 µM and the “GLP-1 receptor action enhancing activity (vs BETP)” value is on record as 20.
On to `Cc1ccc(S(=O)(=O)Nc2ccc(NC(=O)N[C@H](Cc3c[nH]c4ccccc34)C(=O)NC3CCCCCC3)cc2)cc1` [Compound 43], for which the half-maximal effective concentration (EC50) is 0.16 µM and the “GLP-1 receptor action enhancing activity (vs BETP)” value came to 160.
With `CCC(CC)CNC(=O)[C@@H](Cc1ccccc1)NC(=O)Nc1ccc(NS(=O)(=O)c2ccc(C)cc2)cc1` [Compound 10], the concentration for a half-maximal effect (EC50) was determined as 0.38 µM and the “GLP-1 receptor action enhancing activity (vs BETP)” value is recorded as 67.
For the compound `CCCCC(CC)CNC(=O)[C@@H](CC1CCCCC1)NC(=O)Nc1ccc(N2CCOCC2)c(NS(=O)(=O)c2ccc(C(C)(C)C)cc2)c1` (stereo partly drawn) [Compound 100, (2R)-2-({3-[(4-tert-butylphenyl)sulfonylamino]-4-morpholino-phenyl}carbamoylamino)-3-cyclohexyl-N-(2-ethylhexyl)propanamide], the EC50 was determined as 0.05 µM and the “GLP-1 receptor action enhancing activity (vs BETP)” value stood at 503.
As to `Cc1ccc(S(=O)(=O)Nc2ccc(NC(=O)N[C@H](Cc3ccccc3)C(=O)NCC(F)(F)F)cc2)cc1` [Compound 15], the EC50 was found to be 0.042 µM and the “GLP-1 receptor action enhancing activity (vs BETP)” value stood at 599.
Consider `CCCCCCCCNC(=O)[C@H](Cc1ccc(Cl)cc1)NC(=O)Nc1ccc(NS(=O)(=O)c2ccc(C(C)(C)C)cc2)cc1` [Compound 59], for which the concentration giving a half-maximal response (EC50) worked out at 0.0057 µM.
With `CCCCCCNC(=O)[C@@H](CC1CCCCC1)NC(=O)Nc1cccc(NS(=O)(=O)c2ccc(C(C)(C)C)cc2)c1` [Compound 93], the EC50 came out at 0.045 µM and the “GLP-1 receptor action enhancing activity (vs BETP)” value was found to be 555.
In the case of `Cc1ccc(S(=O)(=O)Nc2ccc(NC(=O)N[C@H](CC(=O)OC(C)(C)C)Cc3ccccc3)cc2)cc1` [Compound 76], the 50% effective concentration (EC50) worked out at 1.6 µM and the “GLP-1 receptor action enhancing activity (vs BETP)” value came out at 16.
The matching figures for `CC(C)CCCC(C)NC(=O)[C@H](CC1CCCCC1)NC(=O)Nc1ccc(NS(=O)(=O)c2ccc(C(C)(C)C)cc2)cc1` (some centres unmarked) [Compound 56]: 0.0038 µM and 6569.
As to `CC(C)(C)OC(=O)[C@H](Cc1ccccc1)NC(=O)Nc1ccc(NS(=O)(=O)c2ccc(C(C)(C)C)cc2)cc1` [Compound 73], the half-maximal effective concentration (EC50) came to 0.31 µM and the “GLP-1 receptor action enhancing activity (vs BETP)” value is on record as 83.
For the compound `Cc1ccc(S(=O)(=O)Nc2ccc(NC(=O)N[C@H](Cc3ccccc3)C(=O)NCc3ccccc3)cc2)cc1` [Compound 14], the EC50 worked out at 1.8 µM and the “GLP-1 receptor action enhancing activity (vs BETP)” value came to 14.
Consider `Cc1ccc(S(=O)(=O)Nc2ccc(NC(=O)N[C@H](CC(C)C)C(=O)OC(C)(C)C)cc2)cc1` [Compound 64], for which the concentration giving a half-maximal response (EC50) worked out at 1.6 µM and the “GLP-1 receptor action enhancing activity (vs BETP)” value was found to be 15.
As for `Cc1ccc(S(=O)(=O)Nc2ccc(NC(=O)N[C@H](Cc3ccccc3)C(=O)NCCc3ccccc3)cc2)cc1` [Compound 13], the EC50 was determined as 1.7 µM and the “GLP-1 receptor action enhancing activity (vs BETP)” value was found to be 15.
For `CC(C)CCCC(C)NC(=O)[C@@H](Cc1c[nH]c2ccccc12)NC(=O)Nc1cccc(NS(=O)(=O)c2ccc(C(C)(C)C)cc2)c1` (some centres unmarked) [Compound 94], the EC50 was 0.18 µM and the “GLP-1 receptor action enhancing activity (vs BETP)” value was determined as 140.
The matching figures for `CCCCC(CC)CNC(=O)[C@H](CC(C)C)NC(=O)Nc1ccc(NS(=O)(=O)c2ccc(C(C)(C)C)cc2)cc1` (some centres unmarked) [Compound 51]: 0.009 µM and 2786.
The matching figures for `CSCCCN(c1ccc(NC(=O)N[C@H](CC2CCCCC2)C(=O)NC(C)CCCC(C)C)cc1)S(=O)(=O)c1ccc(C(C)(C)C)cc1` (stereo partly drawn) [Compound 97, (2R)-2-({4-[(4-tert-butylphenyl)sulfonyl-(3-methylsulfanylpropyl)amino]phenyl}carbamoylamino)-3-cyclohexyl-N-(1,5-dimethylhexyl)propanamide]: 0.063 µM and 399.
With `Cc1ccc(S(=O)(=O)Nc2ccc(NC(=O)N[C@H](Cc3ccccc3)C(=O)NC(C)CCCC(C)C)cc2)cc1` (some centres unmarked) [Compound 55], the half-maximal effective concentration (EC50) is 0.045 µM and the “GLP-1 receptor action enhancing activity (vs BETP)” value stood at 558.
The matching figures for `Cc1ccc(S(=O)(=O)Nc2ccc(NC(=O)N[C@@H](CC(C)C)C(=O)OC(C)(C)C)cc2)cc1` [Compound 65]: 2 µM and 13.
For `Cc1ccc(S(=O)(=O)Nc2ccc(NC(=O)N[C@H](Cc3ccc(Cl)cc3)C(=O)NC3CCCCCC3)cc2)cc1` [Compound 42], the 50% effective concentration (EC50) came to 0.092 µM.
For the compound `CC[S+]([O-])c1nc(-c2cccc(OCc3ccccc3)c2)cc(C(F)(F)F)n1` (centres unmarked) [BETP, 4-(3-benzyloxyphenyl)-2-ethylsulfinyl-6-(trifluoromethyl)pyrimidine, reference compound], the concentration for a half-maximal effect (EC50) was 25 µM and the “GLP-1 receptor action enhancing activity (vs BETP)” value was 1.
Consider `CCCCCCNc1ccc(S(=O)(=O)Nc2ccc(NC(=O)N[C@H](CC3CCCCC3)C(=O)NC(C)CCCC(C)C)cc2)cn1` (some centres unmarked) [Compound 105], for which the half-maximal effective concentration (EC50) was determined as 0.44 µM and the “GLP-1 receptor action enhancing activity (vs BETP)” value is given as 56.
Regarding `CCCCCCCCNC(=O)[C@@H](Cc1ccccc1)NC(=O)Nc1ccc(NS(=O)(=O)c2ccc(C)cc2)cc1` [Compound 5], the half-maximal effective concentration (EC50) worked out at 0.051 µM and the “GLP-1 receptor action enhancing activity (vs BETP)” value came to 490.
The matching figures for `CCC(CC)CNC(=O)[C@@H](CC(C)C)NC(=O)Nc1ccc(NS(=O)(=O)c2ccc(C)cc2)cc1` [Compound 30]: 1.2 µM and 21.
The matching figures for `Cc1ccc(S(=O)(=O)Nc2ccc(NC(=O)N[C@H](Cc3ccccc3)C(=O)NCc3ccc(F)cc3)cc2)cc1` [Compound 26]: 1.1 µM and 24.
As to `Cc1ccc(S(=O)(=O)Nc2ccc(NC(=O)N[C@H](Cc3ccccc3)C(=O)NCCC3CCCCC3)cc2)cc1` [Compound 22], the concentration for a half-maximal effect (EC50) is 0.22 µM and the “GLP-1 receptor action enhancing activity (vs BETP)” value is 116.
